Reference: patent US20100291236A1, “OSMIUM COMPOUNDS” (THE UNIVERSITY OF WARWICK, priority 2006, published 2010)
Read-outs that look alike come from different tables or passages of the source.

Key:
[1] = test system: human ovarian A2780 cancer cells; test: Cytotoxicity towards A2780 cells, sulforhodamine B (SRB) assay; assay type: cell-based
Experimental: (§1) Experimental: Cytotoxicity Towards A2780 and A549 Human Cancer Cells. After plating, human ovarian A2780 cancer cells were treated with Os^II complexes on day 3, and human lung A549 cancer cells on day 2, at concentrations ranging from 2 μM to 50 μM. Solutions of the Os^II complexes were made up in 0.125% DMSO to assist dissolution. Cells were exposed to the complexes for 24 h, washed, supplied with fresh medium, allowed to grow for three doubling times (72 h), and then the protein content measured (proportional to cell survival) using the sulforhodamine B (SRB) assay.
(§2) Cancer Cell Cytotoxicity. After plating, human ovarian A2780 cancer cells were treated with OsII complexes on day 3, and human lung A549 cancer cells on day 2, at concentrations ranging from 0.1 μM to 100 μM. Solutions of the OsII complexes were made up in 0.125% DMSO to assist dissolution. Cells were exposed to the complexes for 24 h, washed, supplied with fresh medium, allowed to grow for three doubling times (72 h), and then the protein content measured (proportional to cell survival) using the sulforhodamine B (SRB) assay.10

[2] = test system: human lung A549 cancer cells; test: Cytotoxicity towards A549 cells, sulforhodamine B (SRB) assay; assay type: cell-based
Experimental: as §1, §2

[3] = Acidity (pKa / pKa*) of coordinated water, 1H NMR pH* titration
Text: pKa* calculations. […] The chemical shifts of the arene ring protons were plotted against pH*. The pH* titration curves were fitted to the Henderson-Hasselbalch equation, with the assumption that the observed chemical shifts are weighted averages according to the populations of the protonated and deprotonated species.

[4] = Hydrolysis (aquation) kinetics followed by 1H NMR; assay type: physicochemical
Experimental: Hydrolysis. […] The rate of hydrolysis was determined by fitting plots of concentrations (determined by ^1H NMR peak integrals) versus time to a pseudo first-order equation using ORIGIN version 5.0 (Microcal Software Ltd.).

[5] = Effect of chloride concentration on aqua adduct formation; assay type: physicochemical; conditions: 1 mM complex in D2O, t = 10 min
Text: The effects of chloride levels on the distribution of AFAP42 (“prodrug”) and its aqua analogue (“active species”) were investigated. […] Results are summarised in table 6, showing how the hydrolysis of AFAP42 is suppressed in solutions with chloride concentrations similar to those found in blood plasma. At chloride concentrations typical of the cells cytoplasm, complex AFAP42 hydrolyses to some extent and at chloride concentrations typical of the nucleus (where the proposed target, DNA, can be found), the complex is present predominantly as the “active species” the aqua complex.
The effects of chloride concentrations typical of blood plasma (100 mM), cell cytoplasm (22.7 mM) and cell nucleus (4 mM) on the aqueous chemistry of 3 and 6 were investigated. ^1H NMR spectra of 3 or 6 (1 mM) were recorded within 10 min of sample preparation and after incubation at 310 K for 24 h.

9-ethyl guanine (9EtG) = test: Reaction with nucleobase model 9-ethyl guanine, 1H NMR; assay type: binding; conditions: for % 9EtG nucleobase adduct: 1 mM complex, 1 mol equivalent 9EtG, D2O; for binding to 9EtG (nucleobase adduct formation): time not given; for +1 eq. 9-EtG (% adduct formation): pH* close to 7.4, 298 K
Experimental: (§3) Since DNA is believed to be the main target for metal anticancer drugs, nucleobase binding reactions of compounds 3-6, with nucleobase models, 9-ethyl guanine (9EtG) and 9-ethyl adenine (9EtA), were investigated.
(§4) Solutions of 3-6 (1 mM) (present as an equilibrium between 3-6 and their respective aqua adducts as the major species) with 1 mol equivalent of 9EtG (Table 14) or 9EtA (Table 15) in D2O were prepared and ^1H NMR spectra were taken at different time intervals.
(§5) Interactions with Nucleobases. The reaction of compounds 8-12 with nucleobases typically involved addition of a solution containing 1 mol equiv of nucleobase in D2O, to an equilibrium solution of compounds 8-12 in D2O (>90% aqua). The pH* value of the sample was adjusted if necessary so as to remain close to 7.4 (physiological). ^1H NMR spectra of these solutions were recorded at 298 K after various time intervals.

9-ethyl adenine (9EtA) = test: Reaction with nucleobase model 9-ethyl adenine, 1H NMR; assay type: binding; conditions: for % 9EtA nucleobase adduct: 1 mM complex, 1 mol equivalent 9EtA, D2O; for binding to 9EtA (nucleobase adduct formation): time not given; for +1 eq. 9-EtA (% adduct formation): pH* close to 7.4, 298 K
Experimental: as §3, §4, §5

[6] = Effect of chloride concentration on aqua adduct formation; assay type: physicochemical; conditions: 1 mM complex in D2O, t = 26 h
[7] = Table 7, 24 h exposure, 72 h growth, 2-50 μM, read-out: IC50/μM A2780
[8] = Table 7, 24 h exposure, 72 h growth, 2-50 μM, read-out: IC50/μM A549
[9] = Table 19, read-out: IC50 (μM) in A2780
[10] = Table 8, compounds 1-6, read-out: A2780 IC50
[11] = Table 8, compounds 1-6, read-out: A549 IC50
[12] = 298 K, 5% MeOD-d4/95% D2O, pH* 2
[13] = 288 K, 5% MeOD-d4/95% D2O, pH* 2

| Structure (SMILES) | IC50 [1, 10] [µM] | IC50 [2, 11] [µM] | Hydrolysis k/h^−1 [4, 12] [h⁻¹] | % 9EtG nucleobase adduct (9-ethyl guanine (9EtG); t = 10) [%] | % 9EtG nucleobase adduct (9-ethyl guanine (9EtG); t = 24 h) [%] | % 9EtG nucleobase adduct (9-ethyl guanine (9EtG); t = 72 h) [%] | % 9EtA nucleobase adduct (9-ethyl adenine (9EtA); t = 10) [%] | % 9EtA nucleobase adduct (9-ethyl adenine (9EtA); t = 24 h) [%] | % 9EtA nucleobase adduct (9-ethyl adenine (9EtA); t = 72 h) [%] | pKa* of the aqua adduct [3] | Hydrolysis k/h^−1 [4, 13] [h⁻¹] | also measured |
| --- | --- | --- | --- | --- | --- | --- | --- | --- | --- | --- | --- | --- |
| CC(=O)C=C(C)[O][Os][Cl].Cc1ccc(C(C)C)cc1 [AFAP29] | – | – | – | – | – | – | – | – | – | – | – | IC50 [1, 7]: > 100 µM; IC50 [2, 8]: > 100 µM; pKa of water coordinated on hydrolysis (aqua adduct of complex) [3]: 7.63 |
| C1=CCC2=C(C1)Cc1ccccc1C2.F[B-](F)(F)F.NCCN.[Cl][Os+] [AFAP65, [(η^6-THA)Os(en)Cl]BF4] | – | – | – | – | – | – | – | – | – | – | – | IC50 [1, 7]: 9.4 µM; IC50 [2, 8]: 6.4 µM; pKa of water coordinated on hydrolysis (aqua adduct of complex) [3]: 6.33 |
| [NH2][Pt]([NH2])([Cl])[Cl] [CDDP, cisplatin, reference compound] | – | – | – | – | – | – | – | – | – | – | – | IC50 [1, 9]: ~0.5 µM |
| O=C([O][Os][Cl])c1cccc(Br)n1.c1ccc(-c2ccccc2)cc1 [Compound 1, [(η^6-bip)Os(6-Br-pico)Cl]] | > 50 | > 50 | 0.345 ± 0.0002 | – | – | – | – | – | – | – | – | – |
| O=C([O][Os][Cl])c1cccc(O)n1.c1ccc(-c2ccccc2)cc1 [Compound 2, [(η^6-bip)Os(6-OH-pico)Cl]] | > 50 | > 50 | – | – | – | – | – | – | – | – | – | – |
| Cc1cccc(C(=O)[O][Os][Cl])n1.c1ccc(-c2ccccc2)cc1 [Compound 3, [(η^6-bip)Os(6-Me-pico)Cl]] | > 50 | > 50 | 0.676 ± 0.039 | 0 | 30 | 30 | 0 | 9 | 9 | 6.34 | 0.219 ± 0.005 | % aqua adduct ([5]; 4 mM NaCl): 50%; % aqua adduct ([5]; 22.7 mM NaCl): 60%; % aqua adduct ([5]; 100 mM NaCl): 35%; binding to 9EtG (nucleobase adduct formation) (9-ethyl guanine (9EtG)): 30%; binding to 9EtA (nucleobase adduct formation) (9-ethyl adenine (9EtA)): 9%; % aqua adduct ([6]; 4 mM NaCl): 70%; % aqua adduct ([6]; 22.7 mM NaCl): 49%; % aqua adduct ([6]; 100 mM NaCl): 27% |
| O=C([O][Os][Cl])c1cc(Cl)ccn1.c1ccc(-c2ccccc2)cc1 [Compound 4, [(η^6-bip)Os(4-Cl-pico)Cl]] | 4.8 | 10 to 50 | 0.656 ± 0.032 | 0 | 59 | 76 | 0 | 62 | 71 | 6.30 | 0.288 ± 0.001 | Activity in A2780 cancer cell line [1]: toxic; Extent of hydrolysis at equilibrium (aqua adduct) ([4]; 5% MeOD-d4/95% D2O, pH* 2): 100% |
| O=C(O)c1ccnc(C(=O)[O][Os][Cl])c1.c1ccc(-c2ccccc2)cc1 [Compound 5, [(η^6-bip)Os(4-CO2H-pico)Cl]] | > 50 | > 50 | 0.384 ± 0.004 | 0 | 100 | 100 | 0 | 100 | 100 | 6.61 | 0.158 ± 0.011 | binding to 9EtG (nucleobase adduct formation) (9-ethyl guanine (9EtG)): 100%; binding to 9EtA (nucleobase adduct formation) (9-ethyl adenine (9EtA)): 100%; Extent of hydrolysis at equilibrium (aqua adduct) ([4]; 5% MeOD-d4/95% D2O, pH* 2): 100% |
| Cc1cc(C)c(NC(=O)c2ccccn2)c(C)c1.Cc1ccc(C(C)C)cc1.F[P-](F)(F)(F)(F)F.[Cl][Os+] [Compound 9, [(η^6-p-cym)Os(N-2,4,6-trimethyl-Ph-picolinamide)Cl]PF6] | – | – | – | – | – | – | – | – | – | – | – | +1 eq. 9-EtG (% adduct formation) (9-ethyl guanine (9EtG); t = 0.17 h): 0%; +1 eq. 9-EtG (% adduct formation) (9-ethyl guanine (9EtG); t = 24 h): 0%; Activity in A2780 cancer cell line [1]: inactive; IC50 [1, 9]: > 50 µM; +1 eq. 9-EtA (% adduct formation) (9-ethyl adenine (9EtA); t = 0.17 h): 0%; +1 eq. 9-EtA (% adduct formation) (9-ethyl adenine (9EtA); t = 24 h): 0%; Rate of hydrolysis [4]: very slowly; Hydrolysis k/h^−1 ([4]; Table 18, 310 K, 0.8 mM): 0.16 ± 0.01 h⁻¹ |
